From patent US8815925B2, “Use of combination preparations comprising antifungal agents” (priority 2006, dated 2014)

Experiments:
[1] = test system: chronic-recurrent vulvovaginitis; settings: Fluconazol 150 mg orally, long-term regimen; cited from earlier work
[2] = test system: diaper thrush (Candida mycosis)
Source text: The treatment was by topical administration of suitable pharmaceutical substance combinations on the skin, or on the mucosae of the genitourinary tract and of the oropharynx, respectively.
(§1) Therapy with an ointment combination of Clotrimazole/Diclofenac-Na

[3] = test system: Candida vulvovaginitis
Method: The treatment was by topical administration of suitable pharmaceutical substance combinations on the skin, or on the mucosae of the genitourinary tract and of the oropharynx, respectively. […]
as §1
Single dose: 5 mg of Diclofenac-Na/20 mg of Clotrimazole
Dosage regimen: initially (3 days) 3×/day ointment strips of 2.5 cm locally applied in vulva and vagina, subsequently once per day, for 4 days.
patient, suffering from chronic-recurrent Candida vulvovaginitis for years (>10 recurrences/year), otherwise healthy, prior treatment both topical (Clotrimazole, Miconazole) and systemically (Fluconazole, several times, also long-term therapy and therapy of the partner).
Initial therapy: Clotrimazole/Diclofenac (25/25 mg) supp. for 2 days, subsequently
Clotrimazole/Diclofenac as ointment as described in Case 1, for 3 days. […]

OC(Cn1cncn1)(Cn1cncn1)c1ccc(F)cc1F [Fluconazol]
cases that become recurrent after discontinuation [1]: about 50%

Clc1ccccc1C(c1ccccc1)(c1ccccc1)n1ccnc1 [Clotrimazole]
clinical picture under monotherapy (summary) ([2]; first diaper thrush case): marked deterioration
healing under monotherapy (summary) ([2]; second (mild) diaper thrush case): healing after three days
response to local treatment (monotherapy) ([3]; Case 1, during pregnancy, before the combination therapy): complete therapy resistance
response to monotherapy ([3]; Case 2, 8 days of therapy, before the combination therapy): low-grade improvement
improvement by conventional local therapy (summary) ([3]; first and third cases): no improvement
course of curing under monotherapy (summary) ([3]; second case, 8 days of intensive therapy): highly retarded
